Experiments:
LnCap = assay: Delivery assay, Goat anti-human IgG-AlexaFluor 488 fluorescence microscopy, LnCap; assay type: cell-based; parameters: key to Delivery efficiency of mAb (i.e., mAb): +++: Strong Alexa Fluor 488 (cyan/green) fluorescent intensity; ++: Medium level of Alexa Fluor 488 (cyan/green) fluorescent intensity; +: Weak, but noticeable Alexa Fluor 488 (cyan/green) fluorescent intensity; -: No signal; conditions: Target cell LnCap; for Delivery efficiency of mAb (i.e., mAb): 100 nM, 3 hours; for Delivery enhancement: mAb-LL37 vs mAb
Experimental: Delivery assay. […] The culturing media containing the unbound antibodies were removed, and the MDA-MB-468 cells were washed with PBS. The adherent cells were treated with trypsin at 37 degree C for 1-2 minutes, neutralized in FACS buffer (2% v/v FBS, 2 mM EDTA, 0.05% w/v sodium azide in PBS), and transferred to FACS tubes on ice. The delivery of antibodies to cells was quantitated by measuring the red fluorescence intensity (i.e., PE-Texas Red color channel in the FACS detector) emitted fromZ-RFP bound to antibody. […] At the end of incubation, the adherent target cells were washed twice with ice-cold PBS, fixed with 2% (w/v) formaldehyde in PBS at room temperature for 15 minutes, and washed twice with PBS at room temperature. The fixed adherent target cells were then permeabilized with 0.05% (v/v) Tween-20 in PBS at room temperature for 15 minutes. The permeabilized cells were then incubated with 5% (v/v) FBS, 0.05% (v/v) Tween-20 in PBS at 37 degree Celsius incubator for 30 minutes. The secondary antibody, Goat anti-human IgG-AlexaFluor 488, was added to 5 ug/ml in 5% (v/v) FBS, 0.05% (v/v) Tween-20 in PBS, and incubated with the treated target cells at 37 degree Celsius incubator for 30 minutes. After incubation, the labelled cells were washed twice with PBS, and stored in storage buffer [5% (v/v) FBS in PBS] at 4 degree Celsius until fluorescence microscope imaging. The delivery of mAb and mAb-LL37 were determined qualitatively by estimating the green fluorescence intensity emitted from the AlexFluor488-labelled secondary antibody bound to mAb or mAb-LL37. […] However, Ramos [NT] No. ATCC CRL-1596, lot#70016960) was grown in suspension culture (i.e., in contrast to adherent cells), and the modification to the methods involves simply harvesting cells from the shaking culture flask for incubation with antibodies (or LL37-linked antibodies), and frequently pelleting down the target cells in the V-bottom 96-well polypropylene plate for downstream processes of PBS washing, fixing, permeabilizing, blocking, and the secondary antibody labelling. The secondary anti-human IgG-AlexaFluor488 labelled target cells were washed and resuspended in PBS, and transferred to the clear polystyrene 48-well plates for fluorescence microscope imaging.

T47D cells [1] = assay: Anti-HER2 mAb delivery efficiency using LL37-derived peptide constructs; assay type: cell-based, human; conditions: peptide conjugated to anti-HER2 mAb light chain, 100 nM Ab, Z-GFP (PEP#6, 35-43) or Goat anti-human IgG-AlexaFluor 488 (PEP#6, 47-94) fluorescence microscopy
Experimental: LL37 and LL37-derived peptides were produced synthetically with two additional N-terminal glycine residues (e.g. as shown in SEQ ID NO:2 compared to SEQ ID NO: 1) to enable the sortase reaction. The LL37-derived peptides (PEP#35 to #43, SEQ ID NOs: 13-21) were all dissolved at 10 mg/ml in phosphate buffer saline (PBS) at room temperature, sterile-filtered, and stored at -20° C. freezer. PEP#48 (SEQ ID: 74), PEP#49 (SEQ ID No: 75), and PEP#60 (SEQ ID NO: 105) were dissolved in 20% (v/v) acetonitrile in PBS. PEP#47 (SEQ ID NO: 96), PEP#86 (SEQ ID NO: 78), PEP#98 (SEQ ID NO: 79), PEP#99 (SEQ ID NO: 80), PEP#102 (SEQ ID NO: 82), and PEP#104 (SEQ ID NO: 84) were dissolved in DMSO. PEP#50 (SEQ ID No: 76), PEP#51 (SEQ ID No: 97), PEP#55 (SEQ ID No: 77), PEP#58 (SEQ ID No: 103), PEP#59 (SEQ ID No: 104), PEP#61 (SEQ ID No: 106), PEP#62 (SEQ ID No: 107), PEP#63 (SEQ ID No: 108), PEP#64 (SEQ ID No: 109), PEP#66 (SEQ ID No: 110), and PEP#94 (SEQ ID No: 35) were all dissolved in PBS. […] The reaction was incubated inside a 37° C. incubator for 16 hours, and then EDTA (pH 7.5) was added to 10 mM in the reaction mixture to chelate calcium and stop the reaction.
Delivery assay: The following delivery assay method was used on the anti-HER2 mAbs conjugated to the PEP#6, #35, #36, #37, #38, #39, #40, #41, #42, and #43 described in Table 7. […] The plates were then removed from the incubator, and the culturing media was removed from the adherent cells. The adherent cells were washed gently with an equal volume of ice-cold PBS. Then, the PBS wash was replaced 250 µl of fresh PBS for fluorescence microscope imaging.
At the end of incubation, the adherent target cells were washed twice with ice-cold PBS, fixed with 2% (w/v) formaldehyde in PBS at room temperature for 15 minutes, and washed twice with PBS at room temperature. The fixed adherent target cells were then permeabilized with 0.05% (v/v) Tween-20 in PBS at room temperature for 15 minutes. The permeabilized cells were then incubated with 5% (v/v) FBS, 0.05% (v/v) Tween-20 in PBS at 37 degree Celsius incubator for 30 minutes. The secondary antibody, Goat anti-human IgG-AlexaFluor 488, was added to 5 ug/ml in 5% (v/v) FBS, 0.05% (v/v) Tween-20 in PBS, and incubated with the treated target cells at 37 degree Celsius incubator for 30 minutes. After incubation, the labelled cells were washed twice with PBS, and stored in storage buffer [5% (v/v) FBS in PBS] at 4 degree Celsius until fluorescence microscope imaging. The delivery of mAb and mAb-LL37-derived peptides were determined qualitatively by estimating the green fluorescence intensity emitted from the AlexFluor488-labelled secondary antibody bound to mAb or mAb-LL37-derived peptides.

[2] = test system: CD3-positive Jurkat cells; assay: Delivery assay, Z-RFP FACS, Jurkat cells; assay type: cell-based, human; conditions: 1 nM, 10 nM, 100 nM; 30 minutes
Experimental: For FIG. 30 Panel E, Foralumab-LL37 was made from Foralumab (SEQ ID NOs: 129 and 130) in a sortase-catalyzed reaction to GG-LL37 peptide (SEQ ID NO: 2), and purified on Protein A chromatography. For cell delivery assay, Foralumab/Foralumab-LL37 and equimolar number of Z-RFP were added to Jurkat cells at described final concentration (i.e, 1 nM, 10 nM, and 100 nM) and incubated for 30 minutes. The liquid suspension culture was gently spun in a microcentrifuge at 2000 rpm for 4 minutes, and the clear supernatant was removed, and the cell pellet was washed in PBS and resuspended in FACS buffer (1XPBS, 2% FBS, 1 mM EDTA, 0.02% sodium azide) for analysis by FACS (Texas Red channel).

T47D cells [3] = assay: Cell viability assay with XTT, T47D; assay type: cell-based, human; conditions: XTT (Taxol ADCs: 3 hours)
Experimental: The cell assay was done by treating/incubating the T47D cells with antibody drug conjugates for 3 hours in the 37 degree C tissue culture incubator. After treatment, cell viability was determined by XTT assay as described above.
(§1) After treatment, cell viability was determined by XTT assay as described above.

OVCAR3 cells = assay: Cell viability assay with XTT, OVCAR3; assay type: cell-based, human; conditions: 72 hours (FIG. 10: 24 hours) treatment
Experimental: Cell viability assay with XTT. On day 1, cells (OVCAR3) were seeded at about 0.02 to 0.025 million cells per ml concentration and incubated overnight in the 37 degree Celsius incubator. […] One set was incubated for 24 hours, and another set for 72 hours. On day 3, the set with 24 hours, the treatment were removed, and replaced with fresh growth media, and continued incubation for the next 48 hours (for the total of 72 hours). On day 5, the set with both 24 hours and 72 hours treatments were analyzed. […] XTT and PMS solutions were freshly prepared immediately before the assay, and were used right away. XTT/PMS were added to the treated cells to start the XTT reaction. […] Spectral absorbance was measured at 475 nm (XTT) and 660 nm (background), and viability calculated from the spectral absorbance difference at 475 nm and 660 nm.
The cell assay was done by treating/incubating the OVCAR3 cells with antibody drug conjugates for 3 hours in the 37 degree C tissue culture incubator. After treatment, cell viability was determined by XTT assay as described above.
as §1
Cell viability assay was carried out with XTT as as described above.
(§2) Cell viability assay with XTT. […] After treatment, cell viability was determined by XTT assay as described above.

RT4V6 cells = assay: Cell viability assay with XTT, RT4V6; assay type: cell-based, human; conditions: 72 hours treatment
Experimental: Cell viability assay with XTT. On day 1, cells (RT4V6, Neuro2A) were seeded at about 0.02 to 0.025 million cells per ml concentration and incubated overnight in the 37° C. incubator. […] XTT and PMS solutions were freshly prepared immediately before the assay, and were used right away. XTT/PMS were added to the treated cells to start the XTT reaction. […] Spectral absorbance was measured at 475 nm (XTT) and 660 nm (background), and viability calculated from the spectral absorbance difference at 475 nm and 660 nm.
Cell assay was done by treating/incubating the RT4V6 cells with antibody drug conjugates for 72 hours in the 37 degree C tissue culture incubator. After treatment, cell viability was determined by XTT assay as described above.
The cell assay was done by treating/incubating the RT4V6 cells with antibody drug conjugates for 72 hours in the 37 degree C tissue culture incubator. After treatment, cell viability was determined by XTT assay as described above.
as §1, §2

Anti-PSMA, hj591: Anti-PSMA mAb, SEQ ID NOs: 66 and 68
Delivery efficiency of mAb (i.e., mAb) (LnCap): ++
Delivery enhancement (LnCap): YES
Delivery enhancement (LnCap; listed as hj591): greatly enhances the delivery

Citatuzumab [Anti-EpCAM, Citatuzumab]
Delivery efficiency of mAb (i.e., mAb) (LnCap): ++
Delivery enhancement (LnCap): YES

EFKRIVQRIKDFLRNLVPRT [PEP#64]
Delivery efficiency (T47D cells [1]): +

EKIGKEFKRIVQRIKDFLRN [PEP#63]
Delivery efficiency (T47D cells [1]): +

FRKSKEKIGKFFKRIVQRIFDFLRNLVMMWLL [PEP#48]
Delivery efficiency (T47D cells [1]): +++ (Same as LL37)

Foralumab-LL37
targeted delivery (in words) [2]: more efficient than anti-CD3e mAb (i.e., Foralumab) at targeted delivery

GSIGKEFKRIVQRIKDFLR [PEP#66]
Delivery efficiency (T47D cells [1]): ++ (Solid enhancement in delivery, but at lower efficiency than LL37)

IGKEFKRIVQRI [PEP#40]
Delivery efficiency (T47D cells [1]): +

IGKEFKRIVQRIKDFLRNLVPRTES [PEP#36]
Delivery efficiency (T47D cells [1]): ++ (Solid enhancement in delivery, but at lower efficiency than LL37)
killing of T47D / cell viability (in words) (T47D cells [3]): enhanced the anti-HER2 mAb-MMAE drug conjugate to kill T47D cells

IVQRIKDFLRNLVPRTES [PEP#38]
Delivery efficiency (T47D cells [1]): ++ (Solid enhancement in delivery, but at lower efficiency than LL37)
killing of T47D / cell viability (in words) (T47D cells [3]): enhanced the anti-HER2 mAb-MMAE drug conjugate to kill T47D cells

KEFKRIVQRIKDFLRGGGGSRLFDKIRQVIRKFEKG [PEP#55]
killing of OVCAR3 / cell viability (in words) (OVCAR3 cells): strongly enhance ADC killing
killing of RT4V6 / cell viability (in words) (RT4V6 cells): strongly enhance ADC killing
Delivery efficiency (T47D cells [1]): +++ (Same as LL37)
